Remaining binding data for one molecule are collected here from PMC6576746, “Rational discovery of dual-indication multi-target PDE/Kinase inhibitor for precision anti-cancer therapy using structural systems pharmacology” (PLoS Computational Biology, 2019).

What all share (experiment): biochemical
Holding throughout (design): DiscoverX KinomeScan competition binding assay across human kinases; per cent of control at 10 and 100 uM

One test addresses LATS1 (Homo sapiens, UniProt O95835). To be noted: competition binding, % of control; read-out: Percent Control (100 uM Levosimendan). The procedure, abridged: (§1)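 Binding is expressed as %control, normalised between positive and negative control signals. The compound (levosimendan) was tested at 10 μM and 100 μM in the DiscoverX KinomeScan competition binding format against human kinases.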

Another test has as its target T1, ARK5 (Homo sapiens, UniProt O60285).
T1 construct: gene NUAK1
Conditions: competition binding, % of control; read-out: Percent Control (100 uM Levosimendan). The procedure, abridged:
as §1

The next test deals with T2, ERK1 (Homo sapiens, UniProt P27361).
T2 construct: gene MAPK3
Conditions: competition binding, % of control; read-out: Percent Control (100 uM Levosimendan). The procedure, abridged: as §1

The next test addresses PAK1 (Homo sapiens, UniProt Q13153). To be noted: competition binding, % of control; read-out: Percent Control (100 uM Levosimendan). Put shortly: as §1
The target in another test is CLK2 (Homo sapiens, UniProt P49760). To be noted: competition binding, % of control; read-out: Percent Control (100 uM Levosimendan). The procedure, abridged:
as §1

In the next test the target is T3, DLK (Homo sapiens, UniProt Q12852).
T3 construct: gene MAP3K12
To be noted: competition binding, % of control; read-out: Percent Control (100 uM Levosimendan). The procedure, abridged: as §1

The next test has as its target MKNK1 (Homo sapiens, UniProt Q9BUB5). Conditions: competition binding, % of control; read-out: Percent Control (100 uM Levosimendan). Put shortly: as §1
The target of the next test is DDR1 (Homo sapiens, UniProt Q08345). Conditions: competition binding, % of control; read-out: Percent Control (100 uM Levosimendan). The procedure, abridged: as §1
Test [1] concerns the target T4, JAK3(JH1domain-catalytic) (Homo sapiens, UniProt P52333).
T4 construct: JH1domain-catalytic
To be noted: competition binding, % of control; read-out: Percent Control (100 uM Levosimendan). The procedure, abridged: as §1

The next test has as its target CHEK2 (Homo sapiens, UniProt O96017). To be noted: competition binding, % of control. The procedure, abridged:
as §1

Another test has as its target TAOK2 (Homo sapiens, UniProt Q9UL54). To be noted: competition binding, % of control; read-out: Percent Control (100 uM Levosimendan). Put shortly: as §1
The next test deals with CAMK1G (Homo sapiens, UniProt Q96NX5). To be noted: competition binding, % of control; read-out: Percent Control (100 uM Levosimendan). Put shortly: as §1
Test [2] deals with T5, RPS6KA5(Kin.Dom.2-C-terminal) (Homo sapiens, UniProt O75582).
T5 construct: Kin.Dom.2-C-terminal
To be noted: competition binding, % of control; read-out: Percent Control (100 uM Levosimendan). The procedure, abridged: as §1

The next test concerns the target T6, YANK2 (Homo sapiens, UniProt Q9NY57).
T6 construct: gene STK32B
To be noted: competition binding, % of control; read-out: Percent Control (100 uM Levosimendan). The procedure, abridged: as §1

In the next test the target is MST1R (Homo sapiens, UniProt Q04912). To be noted: competition binding, % of control; read-out: Percent Control (100 uM Levosimendan). The procedure, abridged: as §1
The next test concerns the target PRKCD (Homo sapiens, UniProt Q05655). Conditions: competition binding, % of control. Put shortly: as §1
In a further test the target is PRKD1 (Homo sapiens, UniProt Q15139). To be noted: competition binding, % of control; read-out: Percent Control (100 uM Levosimendan). The procedure, abridged: as §1
Sequence of PRKD1 (Q15139 whole entry): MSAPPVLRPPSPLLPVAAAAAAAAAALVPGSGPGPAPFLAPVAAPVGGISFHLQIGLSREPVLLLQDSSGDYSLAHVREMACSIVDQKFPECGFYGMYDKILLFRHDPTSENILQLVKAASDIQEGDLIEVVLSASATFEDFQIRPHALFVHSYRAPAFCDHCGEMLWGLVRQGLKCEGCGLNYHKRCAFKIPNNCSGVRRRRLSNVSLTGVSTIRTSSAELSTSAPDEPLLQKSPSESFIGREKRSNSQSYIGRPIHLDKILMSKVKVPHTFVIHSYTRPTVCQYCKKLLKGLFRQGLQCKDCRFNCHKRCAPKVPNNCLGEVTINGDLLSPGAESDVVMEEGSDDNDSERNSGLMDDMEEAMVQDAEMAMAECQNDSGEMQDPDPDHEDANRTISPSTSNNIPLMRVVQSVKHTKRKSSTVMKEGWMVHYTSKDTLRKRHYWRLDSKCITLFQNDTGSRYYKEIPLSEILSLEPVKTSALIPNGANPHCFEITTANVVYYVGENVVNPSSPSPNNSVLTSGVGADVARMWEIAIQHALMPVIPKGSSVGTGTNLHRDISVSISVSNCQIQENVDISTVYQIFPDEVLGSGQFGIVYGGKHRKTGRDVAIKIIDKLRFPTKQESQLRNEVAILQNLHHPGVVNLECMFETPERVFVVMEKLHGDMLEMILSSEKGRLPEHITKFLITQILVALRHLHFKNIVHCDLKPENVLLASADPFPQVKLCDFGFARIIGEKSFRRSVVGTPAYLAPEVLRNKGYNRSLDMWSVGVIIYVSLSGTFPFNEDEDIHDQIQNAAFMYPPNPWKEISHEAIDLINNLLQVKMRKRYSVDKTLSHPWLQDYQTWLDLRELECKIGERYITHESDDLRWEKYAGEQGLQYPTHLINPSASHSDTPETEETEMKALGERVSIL
A further test addresses T7, YSK4 (Homo sapiens, UniProt Q56UN5).
T7 construct: gene MAP3K19
Conditions: competition binding, % of control. Put shortly:
as §1

A further test concerns the target HCK (Homo sapiens, UniProt P08631). To be noted: competition binding, % of control. The procedure, abridged:
as §1

Setting [3] is: read-out: Percent Control (10 uM Levosimendan).
[4] abbreviates: read-out: Percent Control (100 uM Levosimendan).

T7 sequence (Q56UN5 whole entry): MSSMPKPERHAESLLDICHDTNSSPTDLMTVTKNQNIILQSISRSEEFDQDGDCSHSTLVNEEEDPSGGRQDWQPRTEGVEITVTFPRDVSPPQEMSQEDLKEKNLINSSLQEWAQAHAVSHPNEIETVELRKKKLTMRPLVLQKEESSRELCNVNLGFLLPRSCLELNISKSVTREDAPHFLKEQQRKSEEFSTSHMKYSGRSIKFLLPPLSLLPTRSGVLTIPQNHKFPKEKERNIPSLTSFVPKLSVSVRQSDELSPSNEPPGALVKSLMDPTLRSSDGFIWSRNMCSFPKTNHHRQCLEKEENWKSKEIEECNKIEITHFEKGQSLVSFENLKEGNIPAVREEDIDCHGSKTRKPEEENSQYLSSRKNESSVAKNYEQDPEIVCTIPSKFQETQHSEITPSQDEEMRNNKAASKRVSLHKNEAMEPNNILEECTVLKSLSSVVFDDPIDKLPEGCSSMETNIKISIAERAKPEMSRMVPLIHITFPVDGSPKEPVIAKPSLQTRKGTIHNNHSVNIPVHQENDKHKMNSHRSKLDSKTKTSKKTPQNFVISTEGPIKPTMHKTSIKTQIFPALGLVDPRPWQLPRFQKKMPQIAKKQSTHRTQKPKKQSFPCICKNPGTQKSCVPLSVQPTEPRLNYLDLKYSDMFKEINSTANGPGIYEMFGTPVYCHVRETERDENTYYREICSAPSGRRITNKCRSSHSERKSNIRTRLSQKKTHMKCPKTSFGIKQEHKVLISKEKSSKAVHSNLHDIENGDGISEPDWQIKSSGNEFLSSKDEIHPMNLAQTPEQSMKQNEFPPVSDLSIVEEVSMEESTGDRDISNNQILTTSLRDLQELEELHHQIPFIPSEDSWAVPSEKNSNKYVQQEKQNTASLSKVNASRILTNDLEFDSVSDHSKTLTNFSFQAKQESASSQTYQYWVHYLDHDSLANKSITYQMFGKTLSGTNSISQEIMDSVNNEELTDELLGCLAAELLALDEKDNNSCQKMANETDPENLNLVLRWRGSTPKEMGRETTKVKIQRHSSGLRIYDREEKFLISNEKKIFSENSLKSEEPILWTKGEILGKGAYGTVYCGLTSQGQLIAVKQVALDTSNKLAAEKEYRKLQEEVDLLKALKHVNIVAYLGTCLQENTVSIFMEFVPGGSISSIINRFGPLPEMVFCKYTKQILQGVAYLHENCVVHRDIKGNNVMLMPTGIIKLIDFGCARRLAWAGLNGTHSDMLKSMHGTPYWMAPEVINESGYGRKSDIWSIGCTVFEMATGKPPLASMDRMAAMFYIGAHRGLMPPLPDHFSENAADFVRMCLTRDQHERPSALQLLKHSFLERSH
Sequence of HCK (P08631 whole entry): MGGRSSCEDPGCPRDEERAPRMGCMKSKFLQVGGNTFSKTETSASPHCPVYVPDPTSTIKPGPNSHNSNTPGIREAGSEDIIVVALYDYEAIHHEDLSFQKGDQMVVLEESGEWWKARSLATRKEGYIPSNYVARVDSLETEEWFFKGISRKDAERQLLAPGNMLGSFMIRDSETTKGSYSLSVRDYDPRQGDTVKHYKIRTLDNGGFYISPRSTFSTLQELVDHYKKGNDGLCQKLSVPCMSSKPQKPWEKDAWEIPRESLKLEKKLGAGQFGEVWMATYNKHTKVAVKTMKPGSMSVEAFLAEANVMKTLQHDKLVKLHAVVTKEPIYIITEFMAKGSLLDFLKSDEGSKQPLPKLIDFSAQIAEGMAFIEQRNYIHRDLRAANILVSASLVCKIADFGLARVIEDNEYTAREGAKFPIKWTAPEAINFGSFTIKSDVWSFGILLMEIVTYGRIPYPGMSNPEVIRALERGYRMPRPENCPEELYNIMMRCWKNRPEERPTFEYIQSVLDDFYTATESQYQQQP
Sequence of PRKCD (Q05655 whole entry): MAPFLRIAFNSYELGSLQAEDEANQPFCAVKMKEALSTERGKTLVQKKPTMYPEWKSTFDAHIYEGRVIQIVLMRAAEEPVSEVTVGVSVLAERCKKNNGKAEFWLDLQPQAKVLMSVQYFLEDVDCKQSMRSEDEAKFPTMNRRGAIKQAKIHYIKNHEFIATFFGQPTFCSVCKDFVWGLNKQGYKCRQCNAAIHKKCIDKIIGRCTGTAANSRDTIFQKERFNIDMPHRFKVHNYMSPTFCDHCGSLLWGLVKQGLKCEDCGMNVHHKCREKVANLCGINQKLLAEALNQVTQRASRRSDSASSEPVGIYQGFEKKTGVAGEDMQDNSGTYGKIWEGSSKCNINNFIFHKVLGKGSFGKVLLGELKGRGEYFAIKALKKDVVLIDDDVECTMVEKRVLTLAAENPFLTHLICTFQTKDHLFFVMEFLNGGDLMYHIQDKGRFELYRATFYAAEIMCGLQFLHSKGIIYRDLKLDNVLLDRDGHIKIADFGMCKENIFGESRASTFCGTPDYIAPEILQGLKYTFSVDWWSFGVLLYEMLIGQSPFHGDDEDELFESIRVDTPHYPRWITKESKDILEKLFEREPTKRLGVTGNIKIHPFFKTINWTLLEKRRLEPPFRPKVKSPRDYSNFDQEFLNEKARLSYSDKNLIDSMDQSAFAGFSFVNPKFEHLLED
Sequence of CHEK2 (O96017 whole entry): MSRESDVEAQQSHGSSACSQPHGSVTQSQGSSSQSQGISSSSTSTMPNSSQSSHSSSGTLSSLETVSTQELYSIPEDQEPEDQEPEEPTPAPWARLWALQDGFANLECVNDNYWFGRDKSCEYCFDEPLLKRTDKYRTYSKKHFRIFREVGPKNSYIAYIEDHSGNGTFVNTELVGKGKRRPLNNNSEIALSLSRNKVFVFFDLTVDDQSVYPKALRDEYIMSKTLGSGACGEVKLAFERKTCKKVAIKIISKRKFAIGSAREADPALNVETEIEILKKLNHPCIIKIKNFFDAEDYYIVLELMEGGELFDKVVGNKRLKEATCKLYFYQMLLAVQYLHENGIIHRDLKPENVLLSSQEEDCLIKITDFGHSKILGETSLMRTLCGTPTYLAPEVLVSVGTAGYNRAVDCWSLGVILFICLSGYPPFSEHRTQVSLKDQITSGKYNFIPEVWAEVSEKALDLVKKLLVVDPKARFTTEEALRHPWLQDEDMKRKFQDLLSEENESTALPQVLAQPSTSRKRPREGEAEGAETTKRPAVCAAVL
T1 sequence (O60285 whole entry): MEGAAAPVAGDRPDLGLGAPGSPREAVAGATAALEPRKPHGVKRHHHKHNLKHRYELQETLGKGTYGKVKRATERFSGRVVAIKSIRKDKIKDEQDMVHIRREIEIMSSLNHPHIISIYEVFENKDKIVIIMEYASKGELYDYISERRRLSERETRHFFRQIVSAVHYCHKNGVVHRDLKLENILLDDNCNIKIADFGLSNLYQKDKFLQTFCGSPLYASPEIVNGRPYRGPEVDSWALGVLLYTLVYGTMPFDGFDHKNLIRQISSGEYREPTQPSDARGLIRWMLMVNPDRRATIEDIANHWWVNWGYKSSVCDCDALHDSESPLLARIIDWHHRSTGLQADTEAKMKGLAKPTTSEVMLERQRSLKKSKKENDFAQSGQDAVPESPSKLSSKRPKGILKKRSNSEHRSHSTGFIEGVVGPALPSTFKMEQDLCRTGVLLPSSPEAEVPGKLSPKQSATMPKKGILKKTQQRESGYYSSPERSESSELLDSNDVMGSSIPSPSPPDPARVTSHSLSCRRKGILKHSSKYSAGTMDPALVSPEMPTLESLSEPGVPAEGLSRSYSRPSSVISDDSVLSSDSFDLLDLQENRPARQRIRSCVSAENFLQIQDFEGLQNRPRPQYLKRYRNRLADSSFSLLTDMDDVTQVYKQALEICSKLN
T6 sequence (Q9NY57 whole entry): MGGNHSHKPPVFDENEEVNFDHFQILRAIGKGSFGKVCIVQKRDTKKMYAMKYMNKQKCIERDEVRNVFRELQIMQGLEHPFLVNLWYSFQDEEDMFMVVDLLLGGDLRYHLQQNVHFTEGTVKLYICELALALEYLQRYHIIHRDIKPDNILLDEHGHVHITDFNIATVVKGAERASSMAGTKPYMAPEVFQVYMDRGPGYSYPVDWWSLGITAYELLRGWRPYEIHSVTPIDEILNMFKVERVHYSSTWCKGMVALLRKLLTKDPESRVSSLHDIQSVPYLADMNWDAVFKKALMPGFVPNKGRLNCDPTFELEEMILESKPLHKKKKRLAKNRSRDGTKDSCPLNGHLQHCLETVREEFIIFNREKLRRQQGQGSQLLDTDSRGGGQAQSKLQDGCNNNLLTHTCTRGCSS

As to `C[C@@H]1CC(=O)NN=C1c1ccc(NN=C(C#N)C#N)cc1` [levosimendan], the remaining binding at 100 µM on LATS1 was 100%; at ARK5, 100%; on ERK1 it was 87%; at PAK1, 73%; at CLK2, 69%; at DLK, 62%. Also, the remaining binding at 100 µM on MKNK1 worked out at 65%; on DDR1, 84%; in test [1], 75%; at CHEK2 (setting [4]), 0.65%; at TAOK2 it was 89%; on CAMK1G it was 62%. In addition, the remaining binding at 100 µM in [2] was 100%; on YANK2, 92%; at MST1R, 87%; on PRKCD (setting [4]), 48%; on PRKD1, 96%; at YSK4 (setting [4]), 10%. Further, the remaining binding at 100 µM at HCK (setting [4]) came out at 24%. Further, the remaining binding at 10 µM worked out at 41% at CHEK2 (setting [3]), 93% on PRKCD (setting [3]), 48% at YSK4 (setting [3]) and 98% at HCK (setting [3]).
